Structures are written as SMILES. In brackets after ≈: the same amount, converted by molar mass. Counter-ions that a name gives are not always drawn.

The first test deals with Treponema hyodysenteriae. In words: Minimum inhibiting concentration against Treponema hyodysenteriae, agar diffusion test with dilution series. The test is classed as cell-based. Conditions: Brachyspira hyodysenteriae, read-out: Minimum inhibiting concentration (MIC). The method, then:
In order to detect the surprising effect on Treponema hyodysenteriae, this microorganism was cultivated according to the method of Harris on a trypticase-soy-agar using an addition of horse blood of 5% in a CO2 /H2 atmosphere, and the minimum inhibiting concentration of Salinomycin was determined in the agar diffusion test, while using the corresponding dilution series, as compared against commercial preparations showing a particularly good effect in dysentery diseases.
For orientation: A growth-free zone around the sample is the usual read-out of agar diffusion tests.
`CN(C)[C@@H]1C(=O)C(C(N)=O)=C(O)[C@@]2(O)C(=O)C3=C(O)c4c(O)cccc4[C@@](C)(O)[C@H]3[C@H](O)[C@@H]12` [Oxytetracycline]: the MIC amounted to 100 µg/mL (≈ 217 µM).
Take `CC[C@H]1OC(=O)[C@H](C)[C@@H](O[C@H]2C[C@@](C)(OC)[C@@H](O)[C@H](C)O2)[C@H](C)[C@@H](O[C@@H]2O[C@H](C)C[C@H](N(C)C)[C@H]2O)[C@](C)(O)C[C@@H](C)C(=O)[C@H](C)[C@@H](O)[C@]1(C)O` [Erythromycin]: the MIC is above 100 µg/mL.
On the same count and under the same terms, the same measure for `CN(C)[C@@H]1C(O)=C(C(N)=O)C(=O)[C@@]2(O)C(O)=C3C(=O)c4c(O)cccc4[C@@](C)(O)[C@H]3C[C@@H]12` [Tetracycline-HCl]: 50 µg/mL.
Consider `C[n+]1c2cc(N)ccc2cc2ccc(N)cc21.[Cl-]` [3,6-Diamino-10-methyl-acridinium chloride], for which the MIC is 100 µg/mL.
The same measure, in the same setting: the same measure for `CC[C@H]1OC(=O)C[C@@H](O)[C@H](C)[C@@H](O[C@@H]2O[C@H](C)[C@@H](O[C@H]3C[C@@](C)(O)[C@@H](O)[C@H](C)O3)[C@H](N(C)C)[C@H]2O)[C@@H](CC=O)C[C@@H](C)C(=O)/C=C/C(C)=C/[C@@H]1CO[C@@H]1O[C@H](C)[C@@H](O)[C@@H](OC)[C@H]1OC` [Tylosin]: above 100 µg/mL.

Still in this test, the particulars now being: Brachyspira hyodysenteriae; trypticase-soy-agar with 5% horse blood, CO2/H2 atmosphere; read-out: Minimum inhibiting concentration (MIC).
Regarding `Cc1ncc([N+](=O)[O-])n1C` [Dimethridazol], the MIC amounted to 5 µg/mL (≈ 35.4 µM).
`CC(C)c1ncc([N+](=O)[O-])n1C` [Ipronidazol]: the MIC was found to be 2 µg/mL (≈ 11.8 µM).
On the same count and under the same terms, the same measure for `CCOc1ccc2nc3cc(N)ccc3c(N)c2c1` [Ethacridine lactate]: 100 µg/mL.

The record behind these values is patent US4291053A, “Agent to be administered orally to domestic animals without cellulose digestion in the rumen” (Hoechst Aktiengesellschaft, priority 1976, dated 1981).
